Among the data in PubChem BioAssay (NCI) are TGI values, retold here.

Among the test systems are SN12C renal; MDA-N; HCT-116 colon; OVCAR-5 ovarian; IGROV1 ovarian; MALME-3M melanoma; SR leukemia; SK-MEL-2 melanoma; UACC-62 melanoma; TK-10 renal; PC-3 prostate.
Holding throughout (test): inhibition of tumour cell growth, NCI panel, 48 h

Each structure is given as a SMILES string.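 Each compound was tested at five concentrations against cells in 96-well plates for 48 hours. TGI: concentration producing complete growth inhibition.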 Where a SMILES comes first, the peptide text is derived from it. [ ]: non-standard residue; d: D form. The star is where a group is joined. mTyr = N[CH](Cc1cccc(O)c1)C(=O)O; Cbz = O=C(OCc1ccccc1)*; OBn = c1ccc(CO*)cc1 A value given as a limit tells only on which side of the number the result lay.

For `Cc1ccc2c(=O)cc(-c3ccc(-c4ccccc4)s3)[nH]c2n1`, the TGI was over 100 µM with SN12C renal; over 100 µM with MDA-N; over 100 µM in the experiment on HCT-116 colon; over 100 µM in the experiment on OVCAR-5 ovarian; over 100 µM in the experiment with IGROV1 ovarian; over 81.1 µM in the experiment on MALME-3M melanoma. Moreover, the TGI in the experiment on SR leukemia is 8.35 µM; in the experiment on SK-MEL-2 melanoma, over 100 µM; in the experiment on UACC-62 melanoma, over 100 µM; in the experiment with TK-10 renal, over 91.4 µM; in the experiment on PC-3 prostate it was 85.5 µM.

With `CC(C)(CC(O)C#N)/[N+]([O-])=[N+](\[O-])C(C)(C)CC(O)C#N` (stereo unspecified), the TGI is 45.3 µM with SN12C renal; 59.5 µM in the experiment with MDA-N; 32.7 µM with HCT-116 colon; 97.2 µM in the experiment with OVCAR-5 ovarian; 49.6 µM in the experiment with IGROV1 ovarian; 54.2 µM in the experiment on MALME-3M melanoma. The TGI in the experiment on SR leukemia was 49.5 µM; with SK-MEL-2 melanoma it was over 100 µM; with UACC-62 melanoma, 37.2 µM; in the experiment with TK-10 renal, 96 µM; in the experiment with PC-3 prostate, over 100 µM.

Take `COC(=O)c1cnn2c1n[n+]([O-])c1ccccc12`: the TGI in the experiment with SN12C renal, with MDA-N, in the experiment on HCT-116 colon, in the experiment with OVCAR-5 ovarian, in the experiment with IGROV1 ovarian and in the experiment with MALME-3M melanoma was over 100 µM in each case. In addition, the TGI with SR leukemia, with SK-MEL-2 melanoma, in the experiment with UACC-62 melanoma, with TK-10 renal and in the experiment on PC-3 prostate was over 100 µM throughout.

Take `COC(=O)C1=C(C)N2[C@H](C(=O)O)CO[C@@]2(C)[C@H](C(=O)OC)[C@H]1c1cccc([N+](=O)[O-])c1`: the TGI in the experiment with SN12C renal, in the experiment with MDA-N, in the experiment on HCT-116 colon, with OVCAR-5 ovarian, in the experiment on IGROV1 ovarian and with MALME-3M melanoma was over 100 µM throughout. Moreover, the TGI in the experiment on SR leukemia, in the experiment with SK-MEL-2 melanoma, in the experiment on UACC-62 melanoma, in the experiment on TK-10 renal and in the experiment on PC-3 prostate was over 100 µM each time.

In the case of `CCN(c1cccc(NC(=S)Nc2ccccc2N(CC)c2cc(-c3ccccc3)no2)c1)c1cc(-c2ccccc2)no1`, the TGI in the experiment on SN12C renal, with MDA-N, with HCT-116 colon, with OVCAR-5 ovarian, with IGROV1 ovarian and with MALME-3M melanoma was over 100 µM each time. Also, the TGI in the experiment with SR leukemia, in the experiment on SK-MEL-2 melanoma, in the experiment with UACC-62 melanoma, with TK-10 renal and in the experiment on PC-3 prostate was over 100 µM throughout.

As for `Nc1nc(Cl)c(N)c(NCC2(CO)CC(CCCc3ccccc3)C2)n1` (stereo unspecified), the TGI in the experiment with SN12C renal is over 100 µM; in the experiment with MDA-N, over 100 µM; in the experiment on HCT-116 colon it was over 100 µM; with OVCAR-5 ovarian it was over 100 µM; in the experiment on IGROV1 ovarian it was over 73.9 µM; with MALME-3M melanoma, 9.92 µM. Besides, the TGI in the experiment with SR leukemia was over 100 µM; in the experiment with SK-MEL-2 melanoma it was 30.6 µM; with UACC-62 melanoma, over 100 µM; in the experiment on TK-10 renal, over 100 µM; in the experiment on PC-3 prostate it was over 91.5 µM.

Turning to `CCOc1ccc(-n2nnc3c(N)nc(N)nc32)cc1`, the TGI in the experiment with SN12C renal, with MDA-N, in the experiment on HCT-116 colon, in the experiment on OVCAR-5 ovarian, with IGROV1 ovarian and in the experiment with MALME-3M melanoma was over 100 µM in each case. The TGI in the experiment on SR leukemia, with SK-MEL-2 melanoma, in the experiment with UACC-62 melanoma, in the experiment on TK-10 renal and with PC-3 prostate was over 100 µM in each case.

On to `Brc1ccc(-c2cn3ccncc3n2)cc1`, for which the TGI in the experiment on SN12C renal, in the experiment with MDA-N, in the experiment on HCT-116 colon, in the experiment with OVCAR-5 ovarian, with IGROV1 ovarian and with MALME-3M melanoma was over 100 µM in each case. In addition, the TGI in the experiment on SR leukemia, in the experiment on SK-MEL-2 melanoma, with UACC-62 melanoma, in the experiment on TK-10 renal and with PC-3 prostate was over 100 µM in each case.

`COc1nc(N)c(N=CC(OC(C)=O)C(OC(C)=O)C(COC(C)=O)OC(C)=O)c(=O)n1C` (stereo unspecified): the TGI in the experiment on SN12C renal, with MDA-N, in the experiment with HCT-116 colon, in the experiment on OVCAR-5 ovarian, with IGROV1 ovarian and in the experiment on MALME-3M melanoma was over 100 µM in each case. The TGI with SR leukemia, in the experiment with SK-MEL-2 melanoma, in the experiment with UACC-62 melanoma, in the experiment with TK-10 renal and in the experiment on PC-3 prostate was over 100 µM in each case.

With `CCOC(=O)CSc1nnc(C(Sc2nc(-c3ccccc3)c(-c3ccccc3)[nH]2)C(C)C)n1-c1ccccc1` (stereo unspecified), the TGI is 26.1 µM with SN12C renal; over 100 µM with MDA-N; over 31.6 µM in the experiment with HCT-116 colon; 28.5 µM with OVCAR-5 ovarian; over 10 µM with IGROV1 ovarian; 28.3 µM in the experiment with MALME-3M melanoma. Also, the TGI was over 89.6 µM in the experiment with SR leukemia; 22.9 µM in the experiment on SK-MEL-2 melanoma; over 10 µM in the experiment with UACC-62 melanoma; over 31.6 µM in the experiment on TK-10 renal; over 100 µM with PC-3 prostate.

For `Nc1ccc(CCN2CCN(CCCc3ccccc3)CC2)cc1`, the TGI in the experiment on SN12C renal, with MDA-N, in the experiment on HCT-116 colon, in the experiment on OVCAR-5 ovarian, in the experiment on IGROV1 ovarian and with MALME-3M melanoma was over 100 µM throughout. In addition, the TGI in the experiment on SR leukemia, with SK-MEL-2 melanoma, in the experiment with UACC-62 melanoma, in the experiment with TK-10 renal and in the experiment with PC-3 prostate was over 100 µM throughout.

As for `Cc1cc(O)c(C(C)C)cc1C1(c2cc(C(C)C)c(O)cc2C)OC(=O)c2ccccc21`, the TGI with SN12C renal was determined as 4.35 µM; in the experiment with MDA-N it was 3.11 µM; with HCT-116 colon it was 3.09 µM; in the experiment on OVCAR-5 ovarian it was 5.92 µM; in the experiment on IGROV1 ovarian, 8.89 µM; with MALME-3M melanoma it was 5.21 µM. Further, the TGI with SR leukemia turned out to be 4.02 µM; in the experiment on SK-MEL-2 melanoma, 3.28 µM; in the experiment with UACC-62 melanoma, 2.87 µM; with TK-10 renal, 11.1 µM; in the experiment with PC-3 prostate it was 4.95 µM.

As for `O=C(CSC1=NCCN1)Nc1ccccc1`, the TGI was 41.1 µM in the experiment with SN12C renal; 59 µM in the experiment on MDA-N; 59.6 µM in the experiment on HCT-116 colon; over 100 µM in the experiment on OVCAR-5 ovarian; over 100 µM with IGROV1 ovarian; 60 µM with MALME-3M melanoma. The TGI was over 100 µM in the experiment with SR leukemia; 44.5 µM in the experiment with SK-MEL-2 melanoma; 52.4 µM with UACC-62 melanoma; 43.9 µM in the experiment with TK-10 renal; 52.6 µM in the experiment on PC-3 prostate.

Consider `COC(=O)C1=C(OC(=O)c2ccccc2)C(C(=O)OC)[C@]2(O)[C@@H](C(=O)OC)[C@H]1C[C@@H](c1ccccc1)[C@@H]2C(=O)OC` (stereo partly specified), for which the TGI in the experiment on SN12C renal came out at 43.2 µM; with MDA-N, 3.95 µM; in the experiment on HCT-116 colon, 14.2 µM; in the experiment on OVCAR-5 ovarian it was 73.9 µM; in the experiment with IGROV1 ovarian it was 21.1 µM; in the experiment on MALME-3M melanoma, 52.1 µM. In addition, the TGI in the experiment on SR leukemia came to 31.3 µM; in the experiment with SK-MEL-2 melanoma it was 13.9 µM; in the experiment with UACC-62 melanoma, 60.4 µM; with TK-10 renal, 69.9 µM; in the experiment on PC-3 prostate it was 23.7 µM.

Consider `COc1ccc(N=C2C(=Nc3ccc(OC)cc3)N(c3ccccc3)C(=S)N2N=C=C2Sc3ccccc3N2C)cc1`, for which the TGI in the experiment with SN12C renal, in the experiment with MDA-N, in the experiment on HCT-116 colon, in the experiment with OVCAR-5 ovarian, with IGROV1 ovarian and with MALME-3M melanoma was over 100 µM in each case. Moreover, the TGI with SR leukemia, in the experiment with SK-MEL-2 melanoma, in the experiment with UACC-62 melanoma, in the experiment on TK-10 renal and with PC-3 prostate was over 100 µM in each case.

Consider `COC(=O)C(Cc1cccc(O)c1)NC(=O)C(CC(=O)OCc1ccccc1)NC(=O)OCc1ccccc1` (stereo unspecified) (Cbz-Asp(OBn)-[mTyr]-OMe; configuration not given here), for which the TGI in the experiment with SN12C renal, in the experiment on MDA-N, in the experiment on HCT-116 colon, in the experiment on OVCAR-5 ovarian, in the experiment with IGROV1 ovarian and in the experiment with MALME-3M melanoma was over 100 µM in each case. The TGI with SR leukemia, in the experiment on SK-MEL-2 melanoma, in the experiment with UACC-62 melanoma, in the experiment with TK-10 renal and in the experiment on PC-3 prostate was over 100 µM each time.

As for `OC(c1ccc(-c2ccccc2)cc1)C(F)(F)c1nc2ccccc2o1` (stereo unspecified), the TGI with SN12C renal, in the experiment on MDA-N, in the experiment on HCT-116 colon, with OVCAR-5 ovarian, in the experiment on IGROV1 ovarian and in the experiment on MALME-3M melanoma was over 100 µM each time. The TGI in the experiment with SR leukemia, with SK-MEL-2 melanoma, in the experiment with UACC-62 melanoma, with TK-10 renal and in the experiment with PC-3 prostate was over 100 µM in each case.

For the compound `C[C@H]1C=C2[C@@H]3CC(C)(C(=O)O)CC[C@]3(C)CC[C@]2(C)[C@]2(C)CC[C@H]3C(C)(C)[C@@H](OC(=O)c4cccc5c(=O)c6ccccc6[nH]c45)CC[C@]3(C)[C@@H]12` (stereo partly specified), the TGI in the experiment with SN12C renal, with MDA-N, in the experiment on HCT-116 colon, in the experiment with OVCAR-5 ovarian, with IGROV1 ovarian and in the experiment on MALME-3M melanoma was over 100 µM in each case. The TGI with SR leukemia, in the experiment with SK-MEL-2 melanoma, in the experiment on UACC-62 melanoma, in the experiment with TK-10 renal and in the experiment on PC-3 prostate was over 100 µM each time.

As for `CN(C)CCCN1c2ccccc2CCc2ccc([N+](=O)[O-])cc21`, the TGI was 58 µM with SN12C renal; 40.9 µM in the experiment on MDA-N; over 100 µM with HCT-116 colon; over 100 µM in the experiment with OVCAR-5 ovarian; 31 µM in the experiment with IGROV1 ovarian; 35.2 µM in the experiment with MALME-3M melanoma. In addition, the TGI was over 100 µM with SR leukemia; 43.9 µM in the experiment with SK-MEL-2 melanoma; 33.3 µM with UACC-62 melanoma; 41.8 µM with TK-10 renal; over 100 µM in the experiment on PC-3 prostate.

`COc1ccc(/C=C2\CN(C)C/C(=C\c3ccc(OC)c(OC)c3OC)C2=O)c(OC)c1OC`: the TGI in the experiment on SN12C renal was determined as 0.449 µM; in the experiment on MDA-N it was 1.25 µM; with HCT-116 colon, 0.196 µM; in the experiment with OVCAR-5 ovarian, 0.656 µM; in the experiment on IGROV1 ovarian, 1.07 µM; with MALME-3M melanoma, 0.333 µM. In addition, the TGI with SR leukemia is 0.0854 µM; in the experiment on SK-MEL-2 melanoma, 2.4 µM; in the experiment with UACC-62 melanoma, 0.548 µM; in the experiment on TK-10 renal, 2.33 µM; in the experiment with PC-3 prostate, 1.43 µM.

Take `N#C/C(=C\c1c[nH]c2ccccc12)C(=O)c1ccc(O)c(O)c1`: the TGI in the experiment on SN12C renal was over 91.5 µM; with MDA-N, over 100 µM; in the experiment with HCT-116 colon it was over 84.8 µM; in the experiment with OVCAR-5 ovarian, over 100 µM; in the experiment on IGROV1 ovarian, over 89.4 µM; in the experiment with MALME-3M melanoma it was over 78.8 µM. Besides, the TGI with SR leukemia was over 31.6 µM; in the experiment with SK-MEL-2 melanoma, over 80.3 µM; in the experiment with UACC-62 melanoma it was over 100 µM; with TK-10 renal, 98.2 µM; with PC-3 prostate, over 100 µM.
